Read-outs that look alike come from different tables or passages of the source.
What was measured:
MMP-2 = biological target: T1, MMP-2 (Homo sapiens, UniProt P08253); assay: MMP enzymatic assay (Trupoint peptide), MMP-2; assay type: biochemical
T1 construct: Human MMP-2 full length (aa 1-660)
T1 sequence (P08253 30-660): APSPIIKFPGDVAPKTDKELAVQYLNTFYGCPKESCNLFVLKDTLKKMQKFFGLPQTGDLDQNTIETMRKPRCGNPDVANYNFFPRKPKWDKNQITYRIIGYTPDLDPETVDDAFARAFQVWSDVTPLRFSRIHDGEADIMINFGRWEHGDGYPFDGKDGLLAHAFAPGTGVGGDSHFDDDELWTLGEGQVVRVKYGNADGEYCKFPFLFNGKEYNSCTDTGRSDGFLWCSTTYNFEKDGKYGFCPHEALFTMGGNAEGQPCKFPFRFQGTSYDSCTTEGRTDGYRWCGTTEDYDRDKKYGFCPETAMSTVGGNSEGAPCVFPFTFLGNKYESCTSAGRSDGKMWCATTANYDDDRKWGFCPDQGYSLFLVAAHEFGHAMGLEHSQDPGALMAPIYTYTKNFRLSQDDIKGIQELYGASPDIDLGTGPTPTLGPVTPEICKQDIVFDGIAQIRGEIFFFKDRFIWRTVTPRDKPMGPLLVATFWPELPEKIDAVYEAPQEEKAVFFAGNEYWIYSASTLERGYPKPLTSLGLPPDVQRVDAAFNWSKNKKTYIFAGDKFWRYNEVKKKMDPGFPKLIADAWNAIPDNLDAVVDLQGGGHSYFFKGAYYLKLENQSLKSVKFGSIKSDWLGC
Protocol: [formula] • 1) Prepare appropriate 1×MMP assay buffer from 10× stock. […] Need to prepare a 2.5× concentration stock (2.5 μM) to achieve this concentration in 50 μl. Dilute compound to 2.5 mM in 100% DMSO (a 1:40 dilution), then dilute the 2.5 mM compound to 2.5 μM (1:1000) into 1× assay buffer. Make 1 ml 2.5 μM compound in assay buffer. • 4) Fill the rows B through P of a 384-well plate with assay buffer+0.1% DMSO. • 5) Add 30 ul of the 2.5 μM compound in assay buffer to the top row of the plate, doing each compound in triplicate. The plate setup should be as follows, using GM6001 as plate reference compound:
• 6) Serially dilute 10 μl down the plate to achieve 1:3 dilutions in subsequent wells. After each dilution, change pipette tips to avoid compound carryover. Discard the remaining 10 μl after diluting into the final row. • 7) Prepare enzyme dilutions at 2.5× of final desired concentration (see below). Will need 10 ml enzyme solution per plate. Add enzyme to plate, 20 μl per well. Incubate 1 hr.
• 8) Dilute the 500 μM Trupoint peptide 1:1000 into assay buffer to achieve a 5× working stock of 500 nM. Prepare 5 ml total per plate. Add 10 ul of substrate to each well to achieve a final concentration of 100 nM in well. Also prepare background subtraction wells by adding 10 μl 5× substrate to 40 μl assay buffer per well, typically do ˜32 wells. • 9) Incubate assay at room temperature for 15 min. Read in plate reader.
(§1) Analysis Specifications • Calculate average background value from substrate/assay buffer wells • Subtract this from entire plate • Calculate average of DMSO wells for each enzyme. This is the positive control, 100% value. • For each well, calculate percent of control by dividing well value by the average DMSO value obtained above. • Paste percent of control values into Graphpad Prism 4.0.

MMP-9 = biological target: T2, MMP-9 (Homo sapiens, UniProt P14780); assay: MMP enzymatic assay (Trupoint peptide), MMP-9; assay type: biochemical
T2 construct: Human MMP-9 catalytic domain (aa 107-446)
T2 sequence (P14780 107-446): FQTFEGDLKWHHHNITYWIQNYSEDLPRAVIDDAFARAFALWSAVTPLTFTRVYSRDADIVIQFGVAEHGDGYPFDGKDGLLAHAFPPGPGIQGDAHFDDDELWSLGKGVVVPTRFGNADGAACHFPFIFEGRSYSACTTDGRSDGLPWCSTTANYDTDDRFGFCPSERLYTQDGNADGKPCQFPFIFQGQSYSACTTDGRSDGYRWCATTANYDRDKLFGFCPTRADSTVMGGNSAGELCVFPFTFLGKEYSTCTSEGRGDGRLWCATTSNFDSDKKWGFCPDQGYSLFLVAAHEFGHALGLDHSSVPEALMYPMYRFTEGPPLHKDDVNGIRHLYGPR
Protocol: [formula] • 1) Prepare appropriate 1×MMP assay buffer from 10× stock. […] The plate setup should be as follows, using GM6001 as plate reference compound:
• 6) Serially dilute 10 μl down the plate to achieve 1:3 dilutions in subsequent wells. After each dilution, change pipette tips to avoid compound carryover. […] Will need 10 ml enzyme solution per plate. Add enzyme to plate, 20 μl per well. Incubate 1 hr.
Prepare 5 ml total per plate. Add 10 ul of substrate to each well to achieve a final concentration of 100 nM in well. […] Read in plate reader.
as §1

Structure (SMILES) | IC50 (MMP-2) | IC50 (MMP-9) | IC50 (MMP-2; read-out: MMP-2 nM IC50)
CC1CN(CC2=CC[C@@H](NS(=O)(=O)c3ccc(Oc4ccc(Cl)cc4)cc3)C(=O)N(O)C2)CC(C)O1 (stereo partly drawn) [Compound 21, (R)-4-(4-Chloro-phenoxy)-N-[6-(2,6-dimethyl-morpholin-4-ylmethyl)-1-hydroxy-2-oxo-2,3,4,7-tetrahydro-1H-azepin-3-yl]-benzenesulfonamide] | 1.25 nM | 0.89 nM | 
O=c1c(N(Cc2ccccc2)S(=O)(=O)c2ccc(Oc3ccccc3)cc2)cccn1O [Compound 22, N-Benzyl-N-(1-hydroxy-2-oxo-1,2-dihydro-pyridin-3-yl)-4-phenoxy-benzene-sulfonamide] |  | 33.4 nM | 22.4 nM
O=S(=O)(c1ccc(Oc2ccccc2)cc1)N(Cc1ccccc1)c1cccn(O)c1=S [Compound 23, N-Benzyl-N-(1-hydroxy-2-thioxo-1,2-dihydro-pyridin-3-yl)-4-phenoxy-benzene-sulfonamide] |  | 693 nM | 4590 nM
CC(C)CN(c1cccn(O)c1=O)S(=O)(=O)c1ccc(Oc2ccccc2)cc1 [Compound 24, N-(1-Hydroxy-2-oxo-1,2-dihydro-pyridin-3-yl)-N-isobutyl-4-phenoxy-benzenesulfonamide] | 41 nM | 57.5 nM | 
CN(c1cccn(O)c1=O)S(=O)(=O)c1ccc(Oc2ccccc2)cc1 [Compound 25, N-(1-Hydroxy-2-oxo-1,2-dihydro-pyridin-3-yl)-N-methyl-4-phenoxy-benzene-sulfonamide] | 1.52 nM | 1.41 nM | 
CCN(c1cccn(O)c1=O)S(=O)(=O)c1ccc(Oc2ccc(C)cc2)cc1 [Compound 27, N-Ethyl-N-(1-hydroxy-2-oxo-1,2-dihydro-pyridin-3-yl)-4-p-tolyloxy-benzene-sulfonamide] | 6.5 nM | 3.6 nM | 
CN(c1cccn(O)c1=O)S(=O)(=O)c1ccc(Oc2ccc(Cl)cc2)cc1 [Compound 28, 4-(4-Chloro-phenoxy)-N-(1-hydroxy-2-oxo-1,2-dihydro-pyridin-3-yl)-N-methyl-benzenesulfonamide] | 6.9 nM | 3.28 nM | 
COc1ccc(Oc2ccc(S(=O)(=O)N(C)c3cccn(O)c3=O)cc2)cc1 [Compound 29, N-(1-Hydroxy-2-oxo-1,2-dihydro-pyridin-3-yl)-4-(4-methoxy-phenoxy)-N-methyl-benzenesulfonamide] |  | 0.87 nM | 5.6 nM
Cc1ccc(N(C)S(=O)(=O)c2ccc(Oc3ccc(Cl)cc3)cc2)c(=O)n1O [Compound 33, 4-(4-Chloro-phenoxy)-N-(1-hydroxy-6-methyl-2-oxo-1,2-dihydro-pyridin-3-yl)-N-methyl-benzenesulfonamide] |  | 34.9 nM | 66.4 nM
Cc1ccc(Oc2ccc(S(=O)(=O)N(CCN3CCOCC3)c3cccn(O)c3=O)cc2)cc1 [Compound 34, N-(1-Hydroxy-2-oxo-1,2-dihydro-pyridin-3-yl)-N-(2-morpholin-4-yl-ethyl)-4-p-tolyloxy-benzenesulfonamide] | 3.5 nM | 2.41 nM | 
O=C(CN(c1cccn(O)c1=O)S(=O)(=O)c1ccc(Oc2ccc(Cl)cc2)cc1)N1CCOCC1 [Compound 35, 4-(4-Chloro-phenoxy)-N-(1-hydroxy-2-oxo-1,2-dihydro-pyridin-3-yl)-N-(2-morpholin-4-yl-2-oxo-ethyl)-benzenesulfonamide] |  | 4.84 nM | 4.93 nM
CN(c1cccn(O)c1=O)S(=O)(=O)c1ccc(-c2ccc(Cl)cc2)cc1 [Compound 36, 4′-Chloro-biphenyl-4-sulfonic acid (1-hydroxy-2-oxo-1,2-dihydro-pyridin-3-yl)-methyl-amide] | 1300 nM | 1800 nM | 
O=c1c(NS(=O)(=O)c2ccc(Oc3ccc(Cl)cc3)cc2)cccn1O [Compound 37, 4-(4-Chloro-phenoxy)-N-(1-hydroxy-2-oxo-1,2-dihydro-pyridin-3-yl)-benzene-sulfonamide] |  | 316 nM | 242 nM
Cc1ccc(Oc2ccc(S(=O)(=O)Nc3cccn(O)c3=O)cc2)cc1 [Compound 38] | 49.8 nM | 64.6 nM | 
CN(c1cccn(O)c1=O)S(=O)(=O)c1ccc(Oc2ccc(OC(F)(F)F)cc2)cc1 [Compound 39, N-(1-Hydroxy-2-oxo-1,2-dihydro-pyridin-3-yl)-N-methyl-4-(4-trifluoro-methoxy-phenoxy)-benzenesulfonamide] |  | 1.85 nM | 5.75 nM
O=c1c(NS(=O)(=O)c2ccc(-c3ccc(Cl)cc3)cc2)cccn1O [Compound 40, 4′-Chloro-biphenyl-4-sulfonic acid (1-hydroxy-2-oxo-1,2-dihydro-pyridin-3-yl)-amide] | > 1000 nM | > 1000 nM | 
O=c1c(COc2ccc(-c3ccc(Br)cc3)cc2)cccn1O [Compound 41, 3-(4′-Bromo-biphenyl-4-yloxymethyl)-1-hydroxy-1H-pyridin-2-one] | > 10000 nM | 7140 nM | 
Cc1ccc(Oc2ccc(N(Cc3cccn(O)c3=O)S(C)(=O)=O)cc2)cc1 [Compound 42, N-(1-Hydroxy-2-oxo-1,2-dihydro-pyridin-3-ylmethyl)-N-(4-p-tolyloxy-phenyl)-methanesulfonamide] | 208 nM | 46.9 nM | 
CS(=O)(=O)N(Cc1cccn(O)c1=O)c1ccc(Oc2ccc(C(F)(F)F)cc2)cc1 [Compound 43, N-(1-Hydroxy-2-oxo-1,2-dihydro-pyridin-3-ylmethyl)-N-[4-(4-trifluoromethyl-phenoxy)-phenyl]-methanesulfonamide] | 491 nM | 233 nM | 
CS(=O)(=O)N(Cc1cccn(O)c1=O)c1ccc(Oc2ccc(Cl)cc2)cc1 [Compound 44, N-[4-(4-Chloro-phenoxy)-phenyl]-N-(1-hydroxy-2-oxo-1,2-dihydro-pyridin-3-ylmethyl)-methanesulfonamide] | 406 nM | 126 nM | 
CCCCc1ccc(N(Cc2cccn(O)c2=O)S(C)(=O)=O)cc1 [Compound 45, N-(4-Butyl-phenyl)-N-(1-hydroxy-2-oxo-1,2-dihydro-pyridin-3-ylmethyl)-methane-sulfonamide] | > 1000 nM | > 1000 nM | 
CCCCOc1ccc(N(Cc2cccn(O)c2=O)S(C)(=O)=O)cc1 [Compound 46, N-(4-Butoxy-phenyl)-N-(1-hydroxy-2-oxo-1,2-dihydro-pyridin-3-ylmethyl)-methanesulfonamide] | > 1000 nM | > 1000 nM | 
Cc1ccc(Oc2ccc(N(Cc3cccn(O)c3=S)S(C)(=O)=O)cc2)cc1 [Compound 47, N-(1-Hydroxy-2-thioxo-1,2-dihydro-pyridin-3-ylmethyl)-N-(4-p-tolyloxy-phenyl)-methanesulfonamide] | > 1000 nM | 486 nM | 
Cc1ccc(Oc2ccc(N(Cc3c(C)ccn(O)c3=O)S(C)(=O)=O)cc2)cc1 [Compound 48, N-(1-Hydroxy-4-methyl-2-oxo-1,2-dihydro-pyridin-3-ylmethyl)-N-(4-p-tolyloxy-phenyl)-methanesulfonamide] | > 1000 nM | 457 nM | 
Cc1ccc(Oc2ccc(N(Cc3cc(Br)cn(O)c3=O)S(C)(=O)=O)cc2)cc1 [Compound 49, N-(5-Bromo-1-hydroxy-2-oxo-1,2-dihydro-pyridin-3-ylmethyl)-N-(4-p-tolyloxy-phenyl)-methanesulfonamide] | 547 nM | 116 nM | 
Cc1ccc(Oc2ccc(N(C(C)c3cccn(O)c3=O)S(C)(=O)=O)cc2)cc1 (stereo not shown) [Compound 50, N-[1-(1-Hydroxy-2-oxo-1,2-dihydro-pyridin-3-yl)-ethyl]-N-(4-p-tolyloxy-phenyl)-methanesulfonamide] | 2550 nM | 223 nM | 

— patent US7803793B2, “Heterocyclic derived metalloprotease inhibitors” (Janssen Pharmaceutica NV, priority 2006, dated 2010)
